Literature values in patent JP2008055197A (priority 2007, dated 2008).

Q: Which “solubility in ethyl alcohol, isopropyl alcohol and the like” value (ethyl alcohol, isopropyl alcohol and the like) does the source give for O=[N+]([O-])OCC(CO[N+](=O)[O-])O[N+](=O)[O-] [ニトログリセリン] here?
A: 溶解する

Q: And the solubility in water (water)?
A: 不溶
